Source: article PMC11794154, “Molecular basis for the diversification of lincosamide biosynthesis by pyridoxal phosphate-dependent enzymes” (Nature Chemistry, 2024)

Assays:
CcbF = biological target: T1, CcbF (Streptomyces caelestis, UniProt E9JES7); assay: X-ray crystal structure, […] Å; type: binding; details: covalent; internal aldimine with Lys260
T1 construct: full-length gene in pET42b (NdeI/XhoI), C-terminal His8 tag, expressed in E. coli BLR(DE3)/pGro7; catalytic Lys260; printed ccbF forward primer is identical to the lmbF one (likely misprint)
T1 sequence (E9JES7 entry or part of it): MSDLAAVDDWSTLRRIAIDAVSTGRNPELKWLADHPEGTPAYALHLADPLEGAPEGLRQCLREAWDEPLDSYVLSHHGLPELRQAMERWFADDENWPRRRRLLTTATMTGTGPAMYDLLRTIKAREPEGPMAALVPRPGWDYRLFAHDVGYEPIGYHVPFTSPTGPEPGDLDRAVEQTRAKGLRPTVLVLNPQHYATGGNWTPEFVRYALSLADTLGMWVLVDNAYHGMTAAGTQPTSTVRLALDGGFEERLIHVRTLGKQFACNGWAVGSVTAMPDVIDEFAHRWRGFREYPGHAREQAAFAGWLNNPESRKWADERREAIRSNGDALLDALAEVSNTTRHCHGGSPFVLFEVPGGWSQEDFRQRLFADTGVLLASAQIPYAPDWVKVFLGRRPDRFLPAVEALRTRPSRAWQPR

LmbF = biological target: T2, LmbF (Streptomyces lincolnensis, UniProt A9Y8R7); assay: X-ray crystal structure, […] Å; type: binding; details: covalent; internal aldimine with Lys270
T2 construct: full-length gene in pET42b (NdeI/XhoI), C-terminal His8 tag, expressed in E. coli BLR(DE3)/pGro7; active site at dimer interface; catalytic Lys270
T2 sequence (A9Y8R7 entry or part of it): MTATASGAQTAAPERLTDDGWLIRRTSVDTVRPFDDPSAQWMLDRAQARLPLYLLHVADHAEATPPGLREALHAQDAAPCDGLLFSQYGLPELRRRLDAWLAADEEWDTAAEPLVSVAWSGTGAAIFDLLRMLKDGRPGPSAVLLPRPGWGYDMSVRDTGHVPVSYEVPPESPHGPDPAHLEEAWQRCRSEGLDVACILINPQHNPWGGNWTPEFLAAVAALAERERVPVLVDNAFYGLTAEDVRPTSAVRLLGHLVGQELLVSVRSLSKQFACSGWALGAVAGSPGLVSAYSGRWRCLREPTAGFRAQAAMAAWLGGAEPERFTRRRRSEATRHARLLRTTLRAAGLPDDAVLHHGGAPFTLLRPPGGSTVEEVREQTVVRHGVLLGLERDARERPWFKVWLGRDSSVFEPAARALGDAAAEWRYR

Compound: Cc1ncc(COP(=O)(O)O)c(C=O)c1O [PLP]
- X-ray crystal structure, 1.8 Å (CcbF): we solved the X-ray crystal structures of LmbF and CcbF with PLP
- X-ray crystal structure, 1.7 Å (LmbF): we solved the X-ray crystal structures of LmbF and CcbF with PLP
